The CheMixHub viscosity set
Where “and” joins values, the source holds several entries; their conditions need not be identical. Identical values can stand only once.

Legend:
[1] = xn = mol fraction of the nth substance listed

C=C(C)C(=O)OCCCCCCC
101 kPa
Details	viscosity [mPa·s]
303 K	1.516
313 K	1.275
323 K	1.105

CC(C)CCCC(C)CCCC(C)CCCC(C)C (stereo not drawn)
Details	viscosity [mPa·s]
298.15 K, 101.33 kPa	5.479

CC(C)CCCC(C)CCCC(C)CCCCC(C)CCCC(C)CCCC(C)C (stereo not drawn)
100 kPa
Details	viscosity [mPa·s]
293.15 K	35.3
313.15 K	15.4

CC(F)F
101 kPa
Details	viscosity [mPa·s]
293.35 K	0.172
294.75 K	0.177
313.35 K	0.1402
314.25 K	0.1409

CC(O)C(C)O (stereo not drawn)
viscosity [mPa·s]
Details	308.15 K	313.15 K	318.15 K	323.15 K
101 kPa	–	–	–	16.98
101.3 kPa	57.11	39.26	27.62	–

CCCCCCCCCCCCO
Details	viscosity [mPa·s]
303.15 K, 101.33 kPa	12.95

CCCCCCCCCCCCOS(=O)(=O)[O-].CCCCn1cc[n+](C)c1
Details	viscosity [mPa·s]
303.15 K, 101 kPa	1.32e+07

CCCCCCCCN
viscosity
Details	303.15 K	308.15 K	313.15 K
101 kPa	1.169 mPa·s and 1.169 mPa·s and 1.165 mPa·s	0.9267 mPa·s and 0.9267 mPa·s	0.9864 mPa·s
101.33 kPa	1.165 mPa·s	–	0.9864 mPa·s

CCOC(=O)c1ccccc1C(=O)OCC
Details	viscosity [mPa·s]
313.15 K, 101.33 kPa	6.3

CCc1cccc(CC)c1
102 kPa
Details	viscosity [mPa·s]
293.15 K	0.852
303.15 K	0.751
313.15 K	0.668
323.15 K	0.598

COC(=O)OCC(F)(F)F
100 kPa
Details	viscosity [mPa·s]
298.15 K	1
313.15 K	0.74

Cc1ccc(C)cc1
Details	viscosity
293.15 K, 101 kPa	0.5756 mPa·s and 0.6402 mPa·s and 0.6388 mPa·s
293.15 K, 101.2 kPa	0.6517 mPa·s
293.15 K, 101.3 kPa	0.6332 mPa·s and 0.6589 mPa·s
298 K, 101.3 kPa	0.615 mPa·s
298.15 K, 100 kPa	0.6118 mPa·s
298.15 K, 101.2 kPa	0.6083 mPa·s
303.15 K, 101.2 kPa	0.5753 mPa·s
303.15 K, 101.3 kPa	0.5702 mPa·s
303.15 K, 101.32 kPa	0.564 mPa·s
303.15 K, 101.33 kPa	0.5694 mPa·s and 0.519 mPa·s and 0.57 mPa·s
307.35 K, 101.33 kPa	0.539 mPa·s
308.15 K, 100 kPa	0.5508 mPa·s
308.15 K, 101.2 kPa	0.5364 mPa·s
308.15 K, 101.3 kPa	0.5381 mPa·s
313.15 K, 101.2 kPa	0.5094 mPa·s
313.15 K, 101.3 kPa	0.5309 mPa·s and 0.5117 mPa·s and 0.5086 mPa·s
313.15 K, 101.33 kPa	0.5064 mPa·s
318 K, 101.3 kPa	0.4919 mPa·s
318.15 K, 101 kPa	0.4925 mPa·s and 0.462 mPa·s and 0.483 mPa·s
318.15 K, 101.2 kPa	0.5049 mPa·s
318.15 K, 101.3 kPa	0.4817 mPa·s
323.15 K, 101.3 kPa	0.4738 mPa·s and 0.4571 mPa·s

Fc1ccccc1
101 kPa
Details	viscosity
303.15 K	0.514 mPa·s and 0.523 mPa·s and 0.523 mPa·s
308.15 K	0.495 mPa·s and 0.495 mPa·s
313.15 K	0.46 mPa·s and 0.467 mPa·s and 0.467 mPa·s

NCCO.O=CO
viscosity
Details	293.15 K	298.15 K	303.15 K	308.15 K	313.15 K	318.15 K	323.15 K
100 kPa	–	79.13 mPa·s and 79.13 mPa·s	63.01 mPa·s and 63.01 mPa·s	51.79 mPa·s and 51.79 mPa·s	43.03 mPa·s and 43.03 mPa·s	36.34 mPa·s and 36.34 mPa·s	30.76 mPa·s and 30.76 mPa·s
101 kPa	268.9 mPa·s	198.1 mPa·s	149.5 mPa·s	115.4 mPa·s	91 mPa·s	72.85 mPa·s	58.64 mPa·s

O=C(O)C(Cl)Cl
101 kPa
Details	viscosity [mPa·s]
308.15 K	4.779
323.15 K	3.243

O=Cc1ccccc1
viscosity
Details	293.15 K	298.1 K	298.15 K	303.15 K	308.15 K	313.15 K	318.15 K	323.15 K
100 kPa	1.495 mPa·s	–	–	–	–	–	–	–
101 kPa	–	1.37 mPa·s	1.392 mPa·s	1.26 mPa·s	1.215 mPa·s	–	0.9051 mPa·s and 1.051 mPa·s	0.975 mPa·s
101.33 kPa	1.397 mPa·s	–	1.445 mPa·s and 1.321 mPa·s and 1.385 mPa·s	1.278 mPa·s	1.13 mPa·s and 1.178 mPa·s	1.17 mPa·s	1.034 mPa·s	1.072 mPa·s

OCCOCCO
viscosity
Details	293.15 K	298.1 K	298.15 K	308.15 K	313.15 K
101 kPa	38.82 mPa·s and 38.82 mPa·s and 38.82 mPa·s (2×)	27.87 mPa·s	27.15 mPa·s and 27.14 mPa·s	17.26 mPa·s	14.81 mPa·s
101.32 kPa	33.6 mPa·s	–	–	–	12.8 mPa·s
101.33 kPa	–	–	26.81 mPa·s	–	–

[Br-].[Br-].[Br-].[Br-].[Sn+4]
101 kPa
Details	viscosity
313.15 K	1.97 mPa·s and 2.101 mPa·s
323.15 K	1.78 mPa·s

[Cl-].[Cl-].[Cl-].[Cl-].[Ge+4]
101 kPa
Details	viscosity [mPa·s]
293.15 K	0.599
298.15 K	0.589
303.15 K	0.561
313.15 K	0.516

c1ccc(Nc2ccccc2)cc1
Details	viscosity [mPa·s]
323.15 K, 101 kPa	5.95

c1ccsc1
viscosity
Details	293.15 K	298.15 K	303.15 K	308.15 K	313.15 K	318.15 K	323.15 K
100 kPa	–	0.655 mPa·s	–	0.585 mPa·s	–	0.525 mPa·s	–
101 kPa	0.653 mPa·s	0.62 mPa·s and 0.615 mPa·s	0.58 mPa·s	0.54 mPa·s and 0.545 mPa·s	0.518 mPa·s	0.48 mPa·s and 0.491 mPa·s	0.464 mPa·s

C=C(C)C(=O)OCCCCCCC + c1ccccc1
viscosity [mPa·s], [1], 101 kPa
Details	x1 = 0.002	x1 = 0.004	x1 = 0.01	x1 = 0.02
303 K	0.5525	0.5621	0.5849	0.5828
313 K	0.4874	0.4915	0.5123	0.5115
323 K	0.4321	0.4362	0.4518	0.4535

CCCCCCCCN + c1ccccc1
[1], 303.15 K, 101 kPa
Details	viscosity [mPa·s]
x2 = 0.1044	1.099
x2 = 0.3007	0.9459
x2 = 0.498	0.7915
x2 = 0.597	0.7318
x2 = 0.6967	0.6798
x2 = 0.7998	0.6239
x2 = 0.899	0.5891

Cc1ccc(C)cc1 + c1ccccc1
[1]
Details	viscosity [mPa·s]
293.15 K, 101.33 kPa, x2 = 0.2202	0.631
293.15 K, 101.33 kPa, x2 = 0.42	0.623
293.15 K, 101.33 kPa, x2 = 0.7393	0.627
293.15 K, 101.33 kPa, x2 = 0.8207	0.628
298 K, 101.3 kPa, x2 = 0.2099	0.603
298 K, 101.3 kPa, x2 = 0.3766	0.596
298 K, 101.3 kPa, x2 = 0.5839	0.596
298 K, 101.3 kPa, x2 = 0.7205	0.596
298 K, 101.3 kPa, x2 = 0.8802	0.599
303 K, 101 kPa, x1 = 0.1002	0.5613
303 K, 101 kPa, x1 = 0.2018	0.5603
303 K, 101 kPa, x1 = 0.3012	0.5605
303 K, 101 kPa, x1 = 0.397	0.5611
303 K, 101 kPa, x1 = 0.4983	0.5617
303 K, 101 kPa, x1 = 0.5959	0.5628
303 K, 101 kPa, x1 = 0.7005	0.5641
303 K, 101 kPa, x1 = 0.8019	0.5666
303 K, 101 kPa, x1 = 0.8988	0.5684
303.15 K, 101.33 kPa, x2 = 0.2202	0.557
303.15 K, 101.33 kPa, x2 = 0.42	0.55
303.15 K, 101.33 kPa, x2 = 0.7393	0.55
303.15 K, 101.33 kPa, x2 = 0.8207	0.553
313 K, 101 kPa, x1 = 0.1002	0.4975
313 K, 101 kPa, x1 = 0.2018	0.4982
313 K, 101 kPa, x1 = 0.3012	0.4993
313 K, 101 kPa, x1 = 0.397	0.502
313 K, 101 kPa, x1 = 0.4983	0.5024
313 K, 101 kPa, x1 = 0.5959	0.5039
313 K, 101 kPa, x1 = 0.7005	0.5071
313 K, 101 kPa, x1 = 0.8019	0.509
313 K, 101 kPa, x1 = 0.8988	0.5122
313.15 K, 101.33 kPa, x2 = 0.2202	0.497
313.15 K, 101.33 kPa, x2 = 0.42	0.493
313.15 K, 101.33 kPa, x2 = 0.7393	0.49
313.15 K, 101.33 kPa, x2 = 0.8207	0.485
318 K, 101.3 kPa, x2 = 0.1977	0.4856
318 K, 101.3 kPa, x2 = 0.3756	0.4775
318 K, 101.3 kPa, x2 = 0.5821	0.4739
318 K, 101.3 kPa, x2 = 0.7212	0.472
318 K, 101.3 kPa, x2 = 0.8882	0.4718
323 K, 101 kPa, x1 = 0.1002	0.4435
323 K, 101 kPa, x1 = 0.2018	0.4443
323 K, 101 kPa, x1 = 0.3012	0.4462
323 K, 101 kPa, x1 = 0.397	0.4502
323 K, 101 kPa, x1 = 0.4983	0.4513
323 K, 101 kPa, x1 = 0.5959	0.4527
323 K, 101 kPa, x1 = 0.7005	0.4554
323 K, 101 kPa, x1 = 0.8019	0.4585
323 K, 101 kPa, x1 = 0.8988	0.4596
323.15 K, 101.33 kPa, x2 = 0.2202	0.45
323.15 K, 101.33 kPa, x2 = 0.42	0.447
323.15 K, 101.33 kPa, x2 = 0.7393	0.442
323.15 K, 101.33 kPa, x2 = 0.8207	0.435

O=Cc1ccccc1 + c1ccccc1
viscosity [mPa·s], [1], 101 kPa
Details	x1 = 0.1	x1 = 0.2	x1 = 0.4	x1 = 0.5	x1 = 0.6
298.15 K	0.655	0.714	0.847	0.928	1.012
308.15 K	0.583	0.625	0.742	0.809	0.885
318.15 K	0.509	0.551	0.667	0.711	0.773
323.15 K	0.477	0.517	–	0.665	0.724
